Measurements taken from patent publication US20210246115A1 (Bioimics AB, priority 2017, published 2021).
≈ marks a conversion by molar mass, not a printed value. Counter-ions that a name gives are not always drawn. Like-named read-outs stand apart in the source and are kept apart here.

Experiments:
[1] = test system: Enterococcus faecalis (ATCC29212); test: MIC, broth microdilution (CLSI), Enterococcus faecalis; type: cell-based
[2] = test system: Pseudomonas aeruginosa (ATCC27853); test: MIC, broth microdilution (CLSI), Pseudomonas aeruginosa; type: cell-based
[3] = test system: Staphylococcus aureus subsp. aureus (ATCC29213); test: MIC, broth microdilution (CLSI), Staphylococcus aureus ATCC29213; type: cell-based; conditions: Staphylococcus aureus
[4] = test system: E. coli RNase P RNA, M1 RNA; test: Inhibition of bacterial RNase P activity, IC50 determination (cleavage of pATSerUG by M1 RNA); type: biochemical; conditions: NI: No inhibition
[5] = test system: S. aureus MRSA ATCC 33591; test: MIC, S. aureus MRSA ATCC 33591; type: cell-based; conditions: Staphylococcus aureus, read-out: S. aureus MRSA ATCC 33591 MIC
[6] = test system: S. aureus USA300 MRSA BAA-1717; test: MIC, S. aureus USA300 MRSA BAA-1717; type: cell-based; conditions: Staphylococcus aureus, read-out: S. aureus USA300 MRSA BAA-1717 MIC
[7] = test system: E. faecium ATCC 700221; test: MIC, E. faecium ATCC 700221; type: cell-based; conditions: Enterococcus faecium
[8] = test system: S. pneumoniae ATCC 49619; test: MIC, S. pneumoniae ATCC 49619; type: cell-based; conditions: Streptococcus pneumoniae, ATCC49619; Table XIV A. Gram-positive bacteria
[9] = test system: M. phlei ATCC 11758; test: MIC, M. phlei ATCC 11758; type: cell-based; conditions: Mycolicibacterium phlei, ATCC11758; Table XIV A. Gram-positive bacteria
[10] = test system: M. fortuitum ATCC 110; test: MIC, M. fortuitum ATCC 110; type: cell-based; conditions: Mycolicibacterium fortuitum, ATCC110; Table XIV A. Gram-positive bacteria
[11] = test system: E. coli JW5503 (efflux defective); test: MIC, E. coli JW5503 (efflux defective); type: cell-based; conditions: Escherichia coli, read-out: E. coli JW5503 (efflux defective) MIC
[12] = test system: K. pneumoniae ATCC 43816; test: MIC, K. pneumoniae ATCC 43816; type: cell-based; conditions: Klebsiella pneumoniae, ATCC43816; Table XIV B. Gram-negative bacteria
[13] = test system: H. influenzae ATCC 49247; test: MIC, H. influenzae ATCC 49247; type: cell-based; conditions: Haemophilus influenzae, ATCC49247; Table XIV B. Gram-negative bacteria
[14] = test system: A. baumannii ATCC 17978; test: MIC, A. baumannii ATCC 17978; type: cell-based; conditions: Acinetobacter baumannii, ATCC17978; Table XIV B. Gram-negative bacteria
[15] = test system: P. aeruginosa NTUH974 (MDR); test: MIC, P. aeruginosa NTUH974 (MDR); type: cell-based; conditions: Pseudomonas aeruginosa, read-out: P. aeruginosa NTUH974 (MDR) MIC
[16] = test system: N. gonorrhoeae ATCC 700825; test: MIC, N. gonorrhoeae ATCC 700825; type: cell-based; conditions: Neisseria gonorrhoeae, ATCC700825; Table XIV B. Gram-negative bacteria
[17] = test system: H. pylori ATCC 43504; test: MIC, H. pylori ATCC 43504; type: cell-based; conditions: Helicobacter pylori, ATCC43504; Table XIV B. Gram-negative bacteria
[18] = test system: Escherichia coli (ATCC25922); test: MIC, broth microdilution (CLSI), Escherichia coli; conditions: Escherichia coli
[19] = ATCC25922, read-out: E. coli ATCC 25922 MIC, Table XIII
[20] = ATCC25922, read-out: E. coli ATCC 25922 MIC, Table XIV B. Gram-negative bacteria
[21] = ATCC29212, Table XIV A. Gram-positive bacteria, read-out: E. faecalis ATCC 29212 MIC
[22] = ATCC27853, Table XIV B. Gram-negative bacteria, read-out: P. aeruginosa ATCC 27853 MIC
[23] = ATCC29213, Table XIII, read-out: S. aureus ATCC 29213 MIC
[24] = ATCC29213, Table XIV A. Gram-positive bacteria, read-out: S. aureus ATCC 29213 MIC
[25] = Table XIV A. Gram-positive bacteria
[26] = ATCC700221, Table XIV A. Gram-positive bacteria, read-out: E. faecium ATCC 700221 MIC
[27] = Table XIV B. Gram-negative bacteria

SMILES	IC50 [4] [µM]	MIC [8] [µg/mL]	MIC [9] [µg/mL]	MIC [10] [µg/mL]	MIC [11] [µg/mL]	MIC [12] [µg/mL]	MIC [13] [µg/mL]	MIC [14] [µg/mL]	MIC [16] [µg/mL]	MIC [17] [µg/mL]	MIC [18, 19] [µg/mL]	MIC [18, 20] [µg/mL]	MIC [1, 21] [µg/mL]	MIC [2, 22] [µg/mL]	MIC [3, 23] [µg/mL]	MIC [3, 24] [µg/mL]	MIC [5, 25] [µg/mL]	MIC [6, 25] [µg/mL]	MIC [7, 26] [µg/mL]	MIC [15, 27] [µg/mL]	further results
N#Cc1ccc2c(c1)c(C(CCNCCCN)c1cccc(OC(F)(F)F)c1)cn2C1CCCCC1 (centres unmarked) [Compound 372, 3-(3-((3-aminopropyl)amino)-1-(3-(trifluoromethoxy)phenyl)propyl)-1-cyclohexyl-1H-indole-5-carbonitrile, dihydrochloride salt]	9.1	8	4	4	2	2	4	4	4	16	4	2									MIC ([1]; ATCC29212, read-out: E. faecalis ATCC 29212 MIC): 2 µg/mL; MIC ([2]; ATCC27853, read-out: P. aeruginosa ATCC 27853 MIC): 8 µg/mL; MIC ([3]; ATCC29213, read-out: S. aureus ATCC 29213 MIC, Table XIII): 4 µg/mL; MIC ([3]; ATCC29213, read-out: S. aureus ATCC 29213 MIC, Table XIV A. Gram-positive bacteria): 2 µg/mL; MIC [5]: 4 µg/mL; MIC [6]: 2 µg/mL; MIC ([7]; ATCC700221, read-out: E. faecium ATCC 700221 MIC): 2 µg/mL; MIC [15]: 8 µg/mL
Cc1cccc(-c2ccc3c(c2)c(C2CCCC(NCCCN)C2)cn3C2CCCCC2)c1 (centres unmarked) [Compound 381, N1-(3-(1-cyclohexyl-5-(m-tolyl)-1H-indol-3-yl)cyclohexyl)propane-1,3-diamine]	11	8 (≈ 18 µM)	4 (≈ 9.02 µM)	4 (≈ 9.02 µM)	2 (≈ 4.51 µM)	4 (≈ 9.02 µM)	2 (≈ 4.51 µM)	4 (≈ 9.02 µM)	2 (≈ 4.51 µM)	8 (≈ 18 µM)	4 (≈ 9.02 µM)	2 (≈ 4.51 µM)	2 (≈ 4.51 µM)	4 (≈ 9.02 µM)	2 (≈ 4.51 µM)	2 (≈ 4.51 µM)	2 (≈ 4.51 µM)	2 (≈ 4.51 µM)	1 (≈ 2.25 µM)	8 (≈ 18 µM)	
Cc1cccc(-c2ccc3c(c2)c(CCCNCCCN)cn3C2CCCCC2)c1.Cl.Cl [Compound 360, N1-(3-(1-cyclohexyl-5-(m-tolyl)-1H-indol-3-yl)propyl)propane-1,3-diamine hydrochloride salt]	7.8	8	4	4	2	4	2	4	2	8	4	2	2	8	4	4	2	2	2	8	
Cc1cccc(-c2ccc3c(c2)c(CCCNCC(O)CN)cn3C2CCCCC2)c1 (centres unmarked) [Compound 385, 1-amino-3-((3-(1-cyclohexyl-5-(m-tolyl)-1H-indol-3-yl)propyl)amino) propan-2-ol]	13	8 (≈ 19.1 µM)	4 (≈ 9.53 µM)	2 (≈ 4.77 µM)	2 (≈ 4.77 µM)	4 (≈ 9.53 µM)	2 (≈ 4.77 µM)	4 (≈ 9.53 µM)	2 (≈ 4.77 µM)	8 (≈ 19.1 µM)	4 (≈ 9.53 µM)	4 (≈ 9.53 µM)	2 (≈ 4.77 µM)	4 (≈ 9.53 µM)	4 (≈ 9.53 µM)	2 (≈ 4.77 µM)	2 (≈ 4.77 µM)	2 (≈ 4.77 µM)	2 (≈ 4.77 µM)	4 (≈ 9.53 µM)	
Cl.Cl.NCCCNCCC(c1cn(C2CCCCC2)c2ccccc12)C1CCCCC1 (centres unmarked) [Compound 371, N1-(3-cyclohexyl-3-(1-cyclohexyl-1H-indol-3-yl)propyl)propane-1,3-diamine hydrochloride]		8	4	4	2	4	4	4	2	16	2	2	4	8	4	4	4	4	2	8	IC50 ([4]; hydrochloride): 9 µM
Cc1cccc(C(CCNCCCN)c2cn(C3CCCCC3)c3cc(Br)ccc23)c1.Cl.Cl (centres unmarked) [Compound 357, N1-(3-(6-bromo-1-cyclohexyl-1H-indol-3-yl)-3-(m-tolyl)propyl)propane-1,3-diamine hydrochloride salt]	10	8	4	4	4	2	2	4	2	16	4	2	2	4	4	2	2	2	1	4	
NCCCNCCC(c1cccc(OC(F)(F)F)c1)c1cn(C2CCCCC2)c2ccccc12 (centres unmarked) [Compound 348, N1-(3-(1-cyclohexyl-1H-indol-3-yl)-3-(3-(trifluoromethoxy)phenyl)propyl)propane-1,3-diaminesalt]	4.5	8	4	4	2	2	4	4	2	16	4	2	2	8	4	4	4	4	2	8	
